The record followed here is patent US9949945B2, “3′ equatorial-fluorine-substituted neuraminidase inhibitor compounds, compositions and methods for the use thereof as anti-virals” (THE UNIVERSITY OF BRITISH COLUMBIA, priority 2012, dated 2018).

For series [1], the system named is B/Perth (B/Perth/211/01). The series can be described thus: microbe, parasite or virus in culture. In kind it is cell-based. To be noted: read-out: IC50 in the plaque size reduction assay, B/Perth.
The target in series [2] is B/Perth wt (B/Perth/211/01) NA (Influenza B virus, UniProt Q3S340). In kind it is biochemical.
The subject of series [3] is A/Mississippi H1N1 (A/Mississippi/3/01). Briefly: microbe, parasite or virus in culture. In kind it is cell-based. To be noted: read-out: IC50 in the plaque size reduction assay, A/Mississippi H1N1.
The target in series [4] is California H1N1 (A/California/07/09) neuraminidase (Influenza A virus, UniProt C3W6G3).
Series [5] has as its target Brisbane H1N1 (A/Brisbane/59/07) neuraminidase (Influenza A virus, UniProt D5F1R0).
Series [6] deals with A/Fukui H3N2. Briefly: microbe, parasite or virus in culture. The series is classed as cell-based. To be noted: read-out: IC50 in the plaque size reduction assay, A/Fukui H3N2.
Series [7] addresses sH1N1/01 wt (A/Mississippi/3/01 H1N1) NA (Influenza A virus, UniProt Q3M0T6). In kind it is biochemical.
The target in series [8] is Sol Isl sH1N1 wt (A/Solomon Islands/3/2006) NA (Influenza A virus, UniProt B4URD9). In kind it is biochemical.
Series [9] concerns the target A/Fukui H3N2 wt NA (Influenza A virus, UniProt A0A0F6NYK2). The series is classed as biochemical. The following applies: read-out: IC50 in the enzyme inhibition assay, A/Fukui H3N2.
Series [10] concerns the target B/Florida wt (B/Florida/4/2006) NA (Influenza B virus, UniProt J7JZT1). In kind it is biochemical.
The target in series [11] is Hong Kong H3N2 (A/HongKong/01/68) neuraminidase (Influenza A virus, UniProt Q91MA2). The series can be described thus: biochemical.
The target of series [12] is Human Neu2 (Homo sapiens, UniProt Q9Y3R4). The series can be described thus: Time-dependent inactivation of human Neu2. The series is classed as biochemical. To be noted: 1 mM inactivator, 27° C., pH 5.6. On the procedure: All experiments were carried out in a 100 mM Na2HPO4/50 mM Citric acid buffer, pH 5.6. […] The data were analyzed using the program GraFit 4.0 (Erithacus software) (R. Leatherbarrow, Erithacus Software Ltd., 4th Edition, Staines, UK, (1990)). […] Residual enzyme activity was determined at appropriate time intervals by the addition of an aliquot of the inactivation mixture to an assay buffer solution containing 8 mM 4-trifluoromethylumbelliferyl sialic acid (CF3MUSA). The initial linear increase in absorbance at 400 nm was used as a measure of the enzyme activity. These initial rates at each time point were plotted as a function of time to obtain time-dependent exponential decay curves from which ki obs could be obtained using the equation: (rate)t=(rate)t=0e^([…])+offset IC50 Enzyme Inhibition Assays

The nature of series [13]: in vivo. To be noted: Balb/c, mouse, 1 mg/kg.
For series [14] the following is noted: mouse, in vivo.
Where [15] appears, read: read-out: IC50 in the enzyme inhibition assay, B/Perth.

Read-outs that look alike come from different tables or passages of the source.

Human Neu2, sequence (Q9Y3R4 whole entry): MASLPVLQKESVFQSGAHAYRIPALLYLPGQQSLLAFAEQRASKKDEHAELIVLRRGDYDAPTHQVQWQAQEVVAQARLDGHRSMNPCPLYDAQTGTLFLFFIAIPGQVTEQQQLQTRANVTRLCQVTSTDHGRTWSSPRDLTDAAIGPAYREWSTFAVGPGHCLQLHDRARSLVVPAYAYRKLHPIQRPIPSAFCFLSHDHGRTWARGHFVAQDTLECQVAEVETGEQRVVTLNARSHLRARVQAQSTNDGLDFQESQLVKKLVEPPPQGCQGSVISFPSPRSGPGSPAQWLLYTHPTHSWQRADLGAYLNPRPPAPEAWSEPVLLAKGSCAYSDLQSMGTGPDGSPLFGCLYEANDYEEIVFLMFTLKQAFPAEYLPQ

In general, Ki refers to a dissociation constant, usually derived from enzyme kinetics or from competition with a known ligand. Read a high Ki as lower affinity. As to `CC(=O)NC1C(N)C(F)C(F)(C(=O)O)OC1[C@H](O)[C@H](O)CO` (stereo in doubt) [FeqAmDFSA, 5-Acetamido-2,4,5-trideoxy-4-amino-2α, 3β-difluoro-α-D-erythro-L-gluco-nonulo-pyranosonate], the IC50 in series [1] (Influenza B virus, MDCK) was 10 to 100 nM; in series [2] (setting [15]) it was 5.4 nM; in [3] (Influenza A virus, H1N1, MDCK), 100 nM; in series [6] (Influenza A virus, H3N2, MDCK), 1000 nM. Besides, in [4], the Ki worked out at 370 nM. Further, the khyd in [4] and in series [5] was 0.0027 0.0059 0.0150 0.0140 0.0045 min^−1 throughout. In addition, the “t1/2 (inac)” value in series [4] and in [5] was 0.9 0.2 0.4 0.8 — min each time. Further, the “t1/2 (reac)” value in series [4] and in series [5] was 256 117 46 49 153 min throughout.
Consider Zanamivir, for which the IC50 in series [1] is 10 nM; in series [3], at most 1 nM; in [7] (read-out: IC50 in the enzyme inhibition assay, A/Mississippi H1N1) it was 1.9 nM; in series [7] (read-out: IC50 sH1N1/01 wt) it was 1.9 nM; in [6] it was 100 nM; in series [8], 2.2 nM.
On to Oseltamivir, for which the IC50 in series [9] came out at 1.7 nM; in [10], 22.6 nM.
By bioavailability is commonly meant dose-corrected exposure relative to a reference, in per cent. Low readings indicate little systemic uptake, high ones much systemic uptake. For the compound `CC(=O)N[C@@H]1C(NC(=N)N)C(F)[C@](F)(C(=O)O)OC1[C@H](O)[C@H](O)CO` (some centres unmarked) [FaxGuDFSA], the IC50 in series [1] (Influenza B virus, MDCK) was 10 to 100 nM; in series [2] (read-out: IC50 B/Perth wt), 54 nM; in [2] (setting [15]), 54 nM; in series [3] (Influenza A virus, H1N1, MDCK) it was 10 nM; in [6] (Influenza A virus, H3N2, MDCK) it was 100 nM. In addition, the values for the Ki in series [11] and in series [4] were 70 nM and 350 nM, respectively. In series [12], the “inactivation of Neu2” value is “occurred slowly”. This compound also came in with a bioavailability in series [13] of 92%. The “plasma half-life after intranasal administration vs IV injection” value in [14] is given as “significantly longer”. Moreover, the khyd in series [4] and in [5] was <0.0001 <0.0001 <0.0001 <0.0001 <0.000l min^−1 each time. In addition, the “t1/2 (inac)” value in series [4] and in series [5] was 7.4 9.2 20.9 6.8 20.2 min each time. Also, the “t1/2 (reac)” value in series [4] and in series [5] was >6900 >6900 >6900 >6900 >6900 min in each case.
As for `CC(=O)N[C@@H]1C(N)C(F)[C@](F)(C(=O)O)OC1[C@H](O)[C@H](O)CO` (some centres unmarked) [FaxAmDFSA], the IC50 in series [1] (Influenza B virus, MDCK) was found to be 100 nM; in [2] (setting [15]) it was 210 nM; in [3] (Influenza A virus, H1N1, MDCK), 100 nM; in [6] (Influenza A virus, H3N2, MDCK), 1000 nM. Besides, the inhibition constant Ki in series [11] turned out to be 240 nM; in series [4] it was 4280 nM. Besides, the khyd in series [4] and in [5] was 0.0001 0.0002 0.0001 0.0003 <0.0001 min^−1 in each case. In addition, the “t1/2 (inac)” value in series [4] and in [5] was 2.1 2.5 1.7 4.0 20.8 min each time. Moreover, the “t1/2 (reac)” value in series [4] and in series [5] was 6900 3450 6900 2300 >6900 min in each case.
As to `CC(=O)N[C@H]1C([C@H](O)[C@H](O)CO)O[C@@](F)(C(=O)O)C(F)[C@H]1O` (stereo partly drawn) [DFSA, 5-Acetamido-5-deoxy-3-fluoro-D-erythro-β-L-manno-2-nonulopyranosonic acid fluoride], the IC50 in [1] (Influenza B virus, MDCK) came to 1000 nM; in [2] (setting [15]) it was 70 nM; in series [3] (Influenza A virus, H1N1, MDCK), 1000 nM; in series [6] (Influenza A virus, H3N2, MDCK), 100000 nM.
As to `CC(=O)NC1C(NC(=N)N)C(F)C(F)(C(=O)O)OC1[C@H](O)[C@H](O)CO` (stereo in doubt) [FeqGuDFSA, 5-Acetamido-2,4,5-trideoxy-2α, 3β-difluoro-4-guanidino-α-D-erythro-L-gluco-nonulopyranosonate], the IC50 came out at 1 nM in series [1] (Influenza B virus, MDCK); 4.5 nM in [2] (read-out: IC50 B/Perth wt); 4.5 nM in series [2] (setting [15]); 1 nM in [3] (Influenza A virus, H1N1, MDCK); 10 nM in series [6] (Influenza A virus, H3N2, MDCK). Further, the Ki in [11] worked out at 150 nM; in [4] it was 100 nM. Moreover, the “inactivation of Neu2” value in series [12] is reported as “occurred slowly”. Also, the khyd in series [4] and in series [5] was 0.0005 0.0015 0.001 0.0019 0.0005 min^−1 in each case. The “t1/2 (inac)” value in [4] and in series [5] was 0.3 0.5 0.9 0.5 0.8 min each time. The “t1/2 (reac)” value in series [4] and in series [5] was 1380 460 690 363 1380 min each time.
